Patent US6169181A, “Compounds useful to treat retroviral infections” (Pharmacia & Upjohn Company, priority 1998, dated 2001)

How the values were obtained:
HIV-1 protease [1] = target: T1, HIV-1 protease (Human immunodeficiency virus type 1 group M subtype B, UniProt P04585); test: biochemical; conditions: Table II, enzyme HIV-1
In short: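 Percent inhibition came from fluorescence of FITC-tagged cleavage product, separated by filtration from uncleaved substrate captured on streptavidin-coated beads. The enzyme (10 μl of 0.1 μM) and compound acted on a biotin/FITC dual-labelled peptide for one hour at room temperature in the dark. The reaction ran in 0.1 M sodium acetate, pH 5.5, with 1.0 M NaCl and 0.05% NP-40.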

HIV-1 protease [2] = target: T1, HIV-1 protease; test: biochemical; conditions: Table II; enzyme HIV-1; read-out: FITC KI
In short: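 Biotinylated, FITC-labelled peptide substrate cleaved in 0.1 M sodium acetate pH 5.5, 1.0 M NaCl, 0.05% NP-40, room temperature. Filtered labelled product read by fluorescence; nonlinear least-squares fit.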

Structure (SMILES) | PROTEASE % INHIB. (HIV-1 protease [1]; DOSE 0.123 (unit not given)) [%] | PROTEASE % INHIB. (HIV-1 protease [1]; DOSE 0.370 (unit not given)) [%] | PROTEASE % INHIB. (HIV-1 protease [1]; DOSE 1.100 (unit not given)) [%] | PROTEASE % INHIB. (HIV-1 protease [1]; DOSE 3.300 (unit not given)) [%] | PROTEASE % INHIB. (HIV-1 protease [1]; DOSE 10.000 (unit not given)) [%] | PROTEASE % INHIB. (HIV-1 protease [1]; DOSE 30.000 (unit not given)) [%] | Ki (HIV-1 protease [2]) [nM]
CCCC1(CCc2ccccc2)CC(O)=C(C(c2cccc(NS(=O)(=O)c3ccc(C(F)(F)F)cn3)c2)C(C)(C)C)C(=O)O1 (centres unmarked) [Example 293, 5-Trifluoromethyl-N-[3-[1-[5,6-dihydro-4-hydroxy-2-oxo-6-(2-phenethyl)-6-n-propyl-2H-pyran-3-yl]-2,2-dimethylpropyl]-phenyl]-2-pyridinesulfonamide] | 53.45 | 77.51 | 94.18 | 103.03 | 97.41 | 92.01 | 4.3
CCCC1(CCc2ccc(F)cc2)CC(O)=C(C(c2cccc(NS(=O)(=O)c3ccc(C#N)cc3)c2)C(C)(C)C)C(=O)O1 (centres unmarked) [Example 328, N-[3-{1-(4-Hydroxy-5,6-dihydro-2-oxo-6-(2-(4-fluorophenyl)ethyl)-6-propyl-2H-pyran-3-yl)-2,2-dimethylpropyl}phenyl]-4-cyanobenzenesulfonamide] | 27.81 | 79.47 | 95.45 | 96.77 | 96.78 | 92.17 | 22
CCCC1(CCc2ccc(F)cc2)CC(O)=C(C(c2cccc(NS(=O)(=O)c3cccc4cccnc34)c2)C(C)(C)C)C(=O)O1 (centres unmarked) [Example 329, N-[3-{1-(4-Hydroxy-5,6-dihydro-2-oxo-6-(2-(4-fluorophenyl)ethyl)-6-propyl-2H-pyran-3-yl)-2,2-dimethylpropyl)phenyl]-8-quinolinesulfonamide] | 46.4 | 88.19 | 96.63 | 100.32 | 97.07 | 96.35 | 12
CCC(C1=C(O)CC(CCc2ccc(F)cc2)(CCc2ccc(F)cc2)OC1=O)c1cccc(NS(=O)(=O)c2ccc(C(N)=O)cn2)c1 (centres unmarked) [Example 333, N-[3-{1-(4-Hydroxy-5,6-dihydro-2-oxo-6,6-bis(2-(4-fluorophenyl)ethyl)-2H-pyran-3-yl)propyl}phenyl]-5-carbamoylpyridine-2-sulfonamide] | 66.73 | 85.07 | 85.12 | 93.69 | 89.38 | 77.91 | 7.7
Cn1cnc(S(=O)(=O)Nc2cccc(C(C3=C(O)CC(CCc4ccccc4)(CCc4ccccc4)OC3=O)C(C)(C)C)c2)c1 (centres unmarked) [Example 343, N-[3-{1-(4-Hydroxy-5,6-dihydro-2-oxo-6,6-bis(2-phenylethyl)-2H-pyran-3-yl)-2,2-dimethylpropyl}phenyl]-1-methyl-1H-imidazole-4-sulfonamide] | 57.5 | 76.83 | 81.02 | 86.43 | 60.56 | 46 | 2.9
CC(C)(C)C(C1=C(O)CC(CCc2ccccc2)(CCc2ccccc2)OC1=O)c1cccc(NS(=O)(=O)c2ccc(C#N)cn2)c1 (centres unmarked) [Example 344, N-[3-{1-(4-Hydroxy-5,6-dihydro-2-oxo-6,6-bis(2-phenylethyl)-2H-pyran-3-yl)-2,2-dimethylpropyl}phenyl]-5-cyanopyridine-2-sulfonamide] | 47.37 | 72.84 | 81.17 | 83.08 | 68.47 | 46.24 | 5.9
Nc1ccc(S(=O)(=O)Nc2cccc(CC3=C(O)CC(CCc4ccccc4)(CCc4ccccc4)OC3=O)c2)nc1 [Example 354, N-[3-{1-(4-Hydroxy-5,6-dihydro-2-oxo-6,6-bis(2-phenylethyl)-2H-pyran-3-yl)methyl}phenyl]-5-aminopyridine-2-sulfonamide] | < 10 | 10.37 | 26.79 | 46.1 | 54.97 | 54.5 | 665
CCC(C1=C(O)C2CCCCCC2OC1=O)c1cccc(NS(=O)(=O)c2ccc(C#N)cn2)c1 (centres unmarked) [Example 372, 5-Cyano-N-[3-[1-(2,4a,5,6,7,8,9,9a-octahydro-4-hydroxy-2-oxocyclohepta[b]pyran-3-yl)propyl]phenyl]-2-pyridinesulfonamide] | 43.52 | 86.68 | 101.52 | 99.56 | 97.81 | 106.18 | 4
